Assays:
HSC2 [1] = experiment: relative IC50 (inflection point of fitted dose-response curve, CellTiter-Glo viability, 72 h; top asymptote may be below 50% inhibition); higher = less potent
Outline: (§1)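 Viability was scored by CellTiter-Glo ATP luminescence, scaled from vehicle to positive-control wells, with duplicates averaged where present. The cells, MPNST lines and primary human Schwann cells at 750–1000 per well, sat 72 h at 37 °C, 5% CO2, in 384-well plates preprinted with each compound at five concentrations in 10-fold steps. Four-parameter logistic fits were run on the data. These fits give drug sensitivity score and relative IC50 censored at the top concentration, and percent inhibition is reported at the top concentration.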

HS-PSS [2] = experiment: as above
Outline: as §1

HS-Sch-2 = experiment: as above
Outline: as §1

S462 = experiment: as above
Outline: as §1

STS26T [3] = experiment: as above
Outline: as §1

ST8814 [4] = experiment: as above
Outline: as §1

HSC1 [5] = experiment: as above
Outline: as §1

S1507-2 [6] = experiment: as above
Outline: as §1

YST-1 = experiment: as above
Outline: as §1

HSC2 [7] = experiment: relative IC50 (inflection point of fitted dose-response curve, CellTox-Green cytotoxicity, 72 h; top asymptote may be below 50%); higher = less potent
Outline: (§2)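 MPNST cell lines and primary human Schwann cells were incubated 72 h at 37 °C in 384-well plates holding five 10-fold compound dilutions. CellTox-Green was added before seeding at a final 1:1000 dilution and reported fluorescence from DNA released by disrupted cells. Signals were scaled to vehicle and positive-control wells, and cultures failing plate quality control were dropped. Drug sensitivity score and relative IC50 come from four-parameter logistic fits, with IC50 censored at the top concentration.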

HS-PSS [8] = experiment: as above
Outline: as §2

STS26T [9] = experiment: as above
Outline: as §2

ST8814 [10] = experiment: as above
Outline: as §2

HSC1 [11] = experiment: as above
Outline: as §2

S1507-2 [12] = experiment: as above
Outline: as §2

SMILES	relative IC50 (HSC2 [1])	relative IC50 (HS-PSS [2])	relative IC50 (HS-Sch-2)	relative IC50 (S462)	relative IC50 (STS26T [3])	relative IC50 (ST8814 [4])	relative IC50 (HSC1 [5])	relative IC50 (S1507-2 [6])	relative IC50 (YST-1)	relative IC50 (HSC2 [7])	relative IC50 (HS-PSS [8])	relative IC50 (STS26T [9])	relative IC50 (ST8814 [10])	relative IC50 (HSC1 [11])	relative IC50 (S1507-2 [12])
Nc1nc(NC2CC2)cc(-c2cccc(Cl)c2Cl)n1 [TH588]	4280 nM	3820 nM	4160 nM	6910 nM	3710 nM	3830 nM	5430 nM	4360 nM	3620 nM	3820 nM	> 25000 nM	3540 nM	5560 nM	4520 nM	4040 nM
Nc1nc(Cl)nc2c1ncn2[C@@H]1O[C@H](CO)[C@@H](O)[C@@H]1F [Clofarabine]	207 nM	387 nM	161 nM	374 nM	301 nM	744 nM	289 nM	817 nM	331 nM	337 nM	311 nM	585 nM	814 nM	323 nM	1940 nM
Nc1cc(C(F)(F)F)c(-c2cc(N3CCOCC3)nc(N3CCOCC3)n2)cn1 [Buparlisib]	2020 nM	1750 nM	1610 nM	1790 nM	1530 nM	1690 nM	1990 nM	1370 nM	844 nM	2210 nM	> 10000 nM	1610 nM	2660 nM	2710 nM	2960 nM
CCC1(c2ccc(N)cc2)CCC(=O)NC1=O (stereo not drawn) [Aminoglutethimide]	> 10000 nM	> 10000 nM	> 10000 nM	> 10000 nM	> 10000 nM	> 10000 nM	> 10000 nM	> 10000 nM	> 10000 nM	> 10000 nM	> 10000 nM	> 10000 nM	> 10000 nM	> 10000 nM	> 10000 nM
CCN(CC)CCOc1ccc(/C(=C(/Cl)c2ccccc2)c2ccccc2)cc1 [Clomifene]	2440 nM	2290 nM	3360 nM	2450 nM	2520 nM	2540 nM	1140 nM	2470 nM	3930 nM	2030 nM	2990 nM	2840 nM	2560 nM	> 10000 nM	3540 nM
CC[C@@H]1C(=O)N(C)c2cnc(Nc3ccc(C(=O)NC4CCN(C)CC4)cc3OC)nc2N1C1CCCC1 [BI 2536]	22.6 nM	7.64 nM	3.28 nM	4.92 nM	3.49 nM	9.3 nM	27.1 nM	11.9 nM	3.54 nM	21.5 nM	–	2.27 nM	4.57 nM	22.3 nM	10.6 nM
NC(=O)Nc1cc(-c2cccc(F)c2)sc1C(=O)N[C@H]1CCCNC1 [AZD7762]	310 nM	207 nM	67 nM	54.7 nM	139 nM	149 nM	161 nM	63.1 nM	313 nM	266 nM	–	135 nM	243 nM	313 nM	57.1 nM
CO[C@H]1/C=C\C=C(/C)C(=O)NC2=CC(=O)C(NCCN(C)C)=C(C[C@@H](C)C[C@H](OC)[C@H](O)[C@@H](C)/C=C(\C)[C@@H]1OC(N)=O)C2=O [Alvespimycin]	134 nM	45.5 nM	47.3 nM	48.1 nM	72 nM	54.9 nM	132 nM	78.4 nM	24.4 nM	187 nM	49 nM	95.7 nM	106 nM	198 nM	106 nM
c1ccc([C@H]2CN3CCSC3=N2)cc1 [Levamisole]	> 10000 nM	> 10000 nM	> 10000 nM	> 10000 nM	> 10000 nM	> 10000 nM	> 10000 nM	> 10000 nM	> 10000 nM	> 10000 nM	> 10000 nM	> 10000 nM	> 10000 nM	> 10000 nM	> 10000 nM
CN[C@@H]1C[C@H]2O[C@@](C)([C@@H]1OC)n1c3ccccc3c3c4c(c5c6ccccc6n2c5c31)C(=O)N[C@H]4O [UCN-01]	24.8 nM	121 nM	63.3 nM	29.5 nM	44.3 nM	51.9 nM	44.8 nM	19.3 nM	85.9 nM	158 nM	2130 nM	24.9 nM	257 nM	459 nM	159 nM
CC[C@@H]1C(=O)N(C)c2cnc(Nc3ccc(C(=O)N[C@H]4CC[C@H](N5CCN(CC6CC6)CC5)CC4)cc3OC)nc2N1C(C)C [Volasertib]	33.2 nM	42.1 nM	10.6 nM	15.4 nM	7.29 nM	33.6 nM	34.5 nM	16.1 nM	17.7 nM	25.2 nM	> 1000 nM	2.68 nM	34.1 nM	29.3 nM	12.7 nM
O=C(Nc1c[nH]nc1-c1nc2ccc(CN3CCOCC3)cc2[nH]1)NC1CC1 [AT9283]	79.6 nM	178 nM	332 nM	122 nM	172 nM	60.2 nM	83.1 nM	94.6 nM	139 nM	276 nM	> 1000 nM	145 nM	31.9 nM	231 nM	167 nM
